{
  "source": "patent US20150072391A1",
  "about": "“ETHANOL PRODUCTION IN ENGINEERED YEAST” (Massachusetts Institute of Technology, priority 2013, published 2015)",
  "key": {"yeast": {"test_system": "yeast", "test": "Fermentation in synthetic media with cellulosic hydrolysate inhibitors", "assay_type": "cell-based", "experimental": "To determine whether elevated K^+ and pH can overcome the toxicity in acid hydrolysates of cellulosic biomass, fermentation experiments were performed using synthetic lab media supplemented with the known major inhibitors (e.g., acetic acid, furfural and hydroxymethylfurfural (HMF)).\nAll concentrations were then increased by a factor of four to 120 mM (FIG. 23B), far above what has been reported in any hydrolysate. […] Raising K^+ and pH then boosted production by another 54%."}, "[1]": {"test_system": "laboratory strain (S288C)", "assay_type": "cell-based, Saccharomyces cerevisiae", "conditions": "for effect on ethanol output among additives screened: additives to 1×YSC, 300 g/L glucose (FIG. 7)", "experimental": "(§1) To explore how ionic composition of the culture medium affects ethanol performance, chemically defined conditions were necessary which precluded, in some instances, the use of rich formulas such as yeast extract-peptone-dextrose (YEPD) medium or those containing corn steep liquor. […] After the addition of a carbon source and any ionic supplements, all medium were adjusted to pH 3.8 (i.e., the equilibrium pH from the addition of 50 mM K—Pi to 1×YSC), if necessary, using KOH, typically requiring <400 μM. Cultures were incubated at 30° C.: flask cultures (>25 mL) were agitated on a platform shaker at 200 RPM and smaller cultures in glass tubes on a roller drum at the maximum rotational setting.\n(§2) Pre-fermentation cultures were grown until saturation and their cell densities determined by absorbance at 600 nm of an appropriate dilution made using fresh medium. Equalized quantities of biomass (e.g., ≧200 OD600 units) were harvested by centrifugation and re-suspended in ˜10 mL of fermentation medium to yield a cell density of OD600≧20. In addition to the target high sugar concentration (e.g., 300 g/L glucose), the fermentation medium optionally contained the supplements under study (e.g., 50 mM K—Pi) and were the first time cells were exposed to modified ionic conditions.\n(§3) Fermentations were conducted micro-aerobically: tube-based cultures had at least an equal volume of headspace and were capped snugly with snap-on plastic tops but not sealed with Parafilm. Samples were taken every ˜24 h over the course of 1-4 d; for simplicity, however, several figures display bar graphs of steady state or near steady state ethanol titers (e.g., FIGS. 5A-D). Typically, 16-20 μL were removed and diluted appropriately for measurement of cell density at OD600, another 20 μL for quantification of cell viability by methylene blue staining (see below), and a final 0.5 mL pelleted and the supernatant saved for determination of ethanol concentration.\nEthanol concentrations were determined using one of the following two methods; for consistency, however, all samples deriving from a single experiment were assayed exclusively using one method. […] Absorbances of NADH at 340 nm were blanked against a reaction with ddH2O, measured using an Ultrospec 2100 pro UV/Visible spectrophotometer (GE Healthcare Life Sciences), and normalized against the absorbance of the control solution (“bottle 4”) to determine ethanol concentrations.\nTo determine final concentrations, peak areas auto-determined by the Agilent Chemstation for LC software were interpolated off a standard curve consisting of 0-20% ethanol (by volume) prepared in 1×YSC medium.\nImages were recorded using a SPOT Insight 2 MP Firewire color camera with SPOT 5.0 software, and analyzed offline.\nFor each image, the number of unstained (clear) cells was quantified along with the total number (clear+stained) of cells, and the fraction of live cells determined by taking the quotient of the two. Fractions of viable cells were determined for 3-4 images per sample and used to calculate error statistics for the technical replicates (e.g., FIGS. 2A, 2B, 8A). Mean OD600 absorbance values were multiplied by their respective mean viable fractions to arrive at the underlying viable population in OD600 units (e.g., FIG. 1B, 3B).\nTo calculate ethanol productivities per viable cell, rates of increase in ethanol titer were normalized by the average viable OD600 during the corresponding period (FIG. 1A): […]"}, "Strain BY4743": {"test_system": "Strain BY4743", "test": "Intracellular pH by ratiometric pHluorin after ethanol shock", "assay_type": "cell-based, Saccharomyces cerevisiae", "conditions": "for counteraction of the ethanol-mediated pH drop: supplementation of medium", "experimental": "Strain BY4743 (WT) was transformed with p416TEF-pHluorin and grown overnight in 1×YSC-URA containing 200 g/L glucose and any indicated supplements. Equal amounts of yeast biomass were washed and transferred into respective fresh medium containing the indicated concentrations of ethanol, incubated at room temperature for 30 min, and measured for fluorescence emission. The ratio of intensities emitted from excitation at 395 nm and 475 nm ([…]) is directly proportional to pH.\nTo assess pHi, fluorescence intensities from strains carrying a centromeric plasmid expressing ratiometric pHluorin (LAMy178) or empty vector (LAMy96) were measured in a Tecan Safire^2™ microplate reader using excitation wavelengths of 395 nm and 475 nm, and common emission wavelength of 508 nm. Samples, all normalized for cell density, of 140 μL were aliquoted in duplicate to a 96-well black-walled, clear-bottom plate (Costar #3631), and the readings of the replicates averaged. Autofluorescence was removed by subtracting measurements of LAMy96 from LAMy178, both treated under identical conditions. The ratio of the intensities emitted by excitation at 395 nm to that by excitation at 475 nm is directly proportional to pHi; ratios in the 0.5-1.2 range roughly correspond to pH values of ˜5.5-7 (Orij, R., et al. Microbiology (Reading, Engl) 155, 268-278 (2009))."}, "strain FY4/5 (S288C)": {"test_system": "strain FY4/5 (S288C)", "assay_type": "cell-based, Saccharomyces cerevisiae"}, "S288C": {"test_system": "S288C", "conditions": "YP diluted to 20%", "experimental": "as §1"}, "[2]": {"test_system": "S288C, PE-2, Ethanol Red, Kyokai 7", "test": "Glucose fermentation of laboratory and industrial yeast strains", "assay_type": "cell-based, Saccharomyces cerevisiae", "conditions": "K—Pi supplementation, laboratory prototroph and auxotroph and industrial strains", "experimental": "as §2, §3"}, "H131-A3-AL^CS": {"test_system": "H131-A3-AL^CS", "test": "High cell density xylose fermentation", "assay_type": "cell-based, Saccharomyces cerevisiae", "conditions": "K—Pi supplementation, 100 g/L xylose", "experimental": "Furthermore, altering the medium to augment membrane gradients enhanced ethanol production not only from glucose, but from xylose, an abundant carbon source from lignocellulosic feedstocks that cannot be metabolized by unmodified S. cerevisiae^23. Therefore K—Pi supplementation was tested on H131-A3-AL^CS, a strain incorporating the Piromyces XYLA isomerase and P. stipitis XYL3 xylulokinase, and optimized to consume xylose^24. In high cell density, high xylose-only (100 g/L) fermentations, increases of ˜70% in both ethanol titer and productivity were found (FIG. 5D). […]\nTo build yeast biomass and osmotically adapt cells for high cell density and high sugar fermentations, starter cultures consisting of the unmodified base medium (i.e., 1×YSC or YSC-URA) and ˜0.3× the target fermentation sugar concentration (e.g., 100 g/L glucose) were grown until saturation, pelleted by centrifugation, and the entire cell mass used to inoculate a second “pre-fermentation” culture containing ˜0.5-0.6× the target sugar concentration (e.g., 150 g/L glucose). Pre-fermentation cultures were grown until saturation and their cell densities determined by absorbance at 600 nm of an appropriate dilution made using fresh medium. Equalized quantities of biomass (e.g., ≧200 OD600 units) were harvested by centrifugation and re-suspended in ˜10 mL of fermentation medium to yield a cell density of OD600≧20. […]"}, "[3]": {"conditions": "cited from earlier work; for Specific activity: on PNPC"}},
  "data": [
    {"molecule": "O=Cc1ccc(CO)o1", "note": "[HMF, hydroxymethylfurfural]", "values": [
      {"measurement": "inhibition compared to the unsupplemented control", "setting": "yeast; 120 mM", "value": 10, "unit": "%"}
    ]},
    {"molecule": "[Cl-].[K+]", "note": "[KCl, potassium chloride]", "values": [
      {"measurement": "effect on ethanol output among additives screened", "setting": "[1]", "value": "largest enhancement within the panel of chloride salts tested"},
      {"measurement": "effect on ethanol output and viability during fermentation", "setting": "[1]; varied amount of KCl (10-75 mM) in synthetic medium", "value": "dose-dependent improvements"},
      {"measurement": "counteraction of the ethanol-mediated pH drop", "setting": "Strain BY4743", "value": "not capable of counteracting"},
      {"measurement": "viability after isobutanol shock", "setting": "strain FY4/5 (S288C); 5 g/L glucose, additional KCl alone", "value": "insufficient to improve viability"}
    ]},
    {"molecule": "[K+]", "note": "[K^+]", "values": [
      {"measurement": "enhancement of ethanol output", "setting": "S288C; addition of K+, pH 6, SD", "value": "17±2.5", "unit": "%"},
      {"measurement": "restoration of ethanol titers", "setting": "S288C; pH 3.7, addition of K+", "value": "47±2.5", "unit": "%"},
      {"measurement": "ethanol titer", "setting": "S288C; pH 3.7, addition of K+, SD", "value": "109 ± 1.8", "unit": "g/L"},
      {"measurement": "resistance to isobutanol", "setting": "strain FY4/5 (S288C); 5 g/L glucose, K+ supplementation combined with higher pH (5.3 vs. 3.9)", "value": "capable of enhancing resistance to isobutanol"}
    ]},
    {"molecule": "O=P([O-])(O)O.[K+]", "note": "[K—Pi, potassium phosphate monobasic]", "values": [
      {"measurement": "ethanol output titers (near the molar conversion limit)", "setting": "[2]", "value": "~150", "unit": "g/L"},
      {"measurement": "increase in ethanol productivity", "setting": "H131-A3-AL^CS", "value": "~70", "unit": "%"},
      {"measurement": "increase in ethanol titer", "setting": "H131-A3-AL^CS", "value": "~70", "unit": "%"},
      {"measurement": "rise in ethanol output", "setting": "[1]; 50 mM K—Pi added to 1×YSC, 300 g/L glucose, initial OD600 20-30, vs unmodified medium", "value": "> 50", "unit": "%"},
      {"measurement": "final ethanol titer", "setting": "[1]; 50 mM K—Pi, 4-day culture, 300 g/L glucose", "value": "~140", "unit": "g/L"},
      {"measurement": "effect on ethanol output among additives screened", "setting": "[1]", "value": "largest improvement"},
      {"measurement": "specific ethanol productivity (rate normalized by mean live population)", "setting": "[1]; elevated K—Pi vs unmodified medium", "value": "remained unchanged"},
      {"measurement": "additional yeast biomass", "setting": "[1]; high K—Pi vs unmodified medium", "value": "~25", "unit": "%"},
      {"measurement": "counteraction of the ethanol-mediated pH drop", "setting": "Strain BY4743", "value": "not capable of counteracting"},
      {"measurement": "survival after ethanol shock", "setting": "strain FY4/5 (S288C); 10-20% ethanol, 300 g/L glucose, 50 mM K—Pi vs unmodified medium", "value": "survival was indeed enhanced"},
      {"measurement": "survival after isobutanol shock", "setting": "strain FY4/5 (S288C); steps of isobutanol, 300 g/L glucose, elevated K—Pi", "value": "reduced rate of survival"},
      {"measurement": "viability after isopropanol shock", "setting": "strain FY4/5 (S288C); steps of isopropanol, 300 g/L glucose, K—Pi supplementation", "value": "viability was similarly enhanced"}
    ]},
    {"molecule": "O=P([O-])(O)O.[Na+]", "note": "[Na—Pi, monosodium phosphate]", "values": [
      {"measurement": "effect on ethanol output among additives screened", "setting": "[1]", "value": "improves ethanol titer over NaCl"}
    ]},
    {"molecule": "CCO", "note": "[ethanol]", "values": [
      {"measurement": "effect on intracellular pH", "setting": "Strain BY4743; shocks of increasing ethanol concentration", "value": "decreased intracellular pH in a dose-dependent fashion"}
    ]},
    {"molecule": "OCc1ccco1", "note": "[furfuryl alcohol]", "values": [
      {"measurement": "tolerance by yeast compared to furfural", "setting": "yeast", "value": "much better tolerated"}
    ]},
    {"molecule": "Cellulomonas fimi cex: CBHI group cellulase expressed in S. cerevisiae (protein, UniProt P07986 42-484, looked up) Exoglucanase/xylanase: ATTLKEAADGAGRDFGFALDPNRLSEAQYKAIADSEFNLVVAENAMKWDATEPSQNSFSFGAGDRVASYAADTGKELYGHTLVWHSQLPDWAKNLNGSAFESAMVNHVTKVADHFEGKVASWDVVNEAFADGDGPPQDSAFQQKLGNGYIETAFRAARAADPTAKLCINDYNVEGINAKSNSLYDLVKDFKARGVPLDCVGFQSHLIVGQVPGDFRQNLQRFADLGVDVRITELDIRMRTPSDATKLATQAADYKKVVQACMQVTRCQGVTVWGITDKYSWVPDVFPGEGAALVWDASYAKKPAYAAVMEAFGASPTPTPTTPTPTPTTPTPTPTSGPAGCQVLWGVNQWNTGFTANVTVKNTSSAPVDGWTLTFSFPSGQQVTQAWSSTVTQSGSAVTVRNAPWNGSIPAGGTAQFGFNGSHTGTNAAPTAFSLNGTPCTVG", "values": [
      {"measurement": "activity measured per L culture broth", "setting": "[3]; PNPC", "value": "8 U/L,"},
      {"measurement": "activity per dry cell weight", "setting": "[3]; PNPC", "value": "~1.0 U/g DCW (PNPC)"},
      {"measurement": "Specific activity", "setting": "[3]", "value": 3, "unit": "U/mg"}
    ]},
    {"molecule": "Cellulomonas fimi Exg (cex): CBHI group cellulase expressed in S. cerevisiae (protein, UniProt P07986 42-484, looked up) Exoglucanase/xylanase: ATTLKEAADGAGRDFGFALDPNRLSEAQYKAIADSEFNLVVAENAMKWDATEPSQNSFSFGAGDRVASYAADTGKELYGHTLVWHSQLPDWAKNLNGSAFESAMVNHVTKVADHFEGKVASWDVVNEAFADGDGPPQDSAFQQKLGNGYIETAFRAARAADPTAKLCINDYNVEGINAKSNSLYDLVKDFKARGVPLDCVGFQSHLIVGQVPGDFRQNLQRFADLGVDVRITELDIRMRTPSDATKLATQAADYKKVVQACMQVTRCQGVTVWGITDKYSWVPDVFPGEGAALVWDASYAKKPAYAAVMEAFGASPTPTPTTPTPTPTTPTPTPTSGPAGCQVLWGVNQWNTGFTANVTVKNTSSAPVDGWTLTFSFPSGQQVTQAWSSTVTQSGSAVTVRNAPWNGSIPAGGTAQFGFNGSHTGTNAAPTAFSLNGTPCTVG", "values": [
      {"measurement": "activity measured per L culture broth", "setting": "[3]; PNPC", "value": "45 U/L (PNPC)"},
      {"measurement": "Specific activity", "setting": "[3]", "value": "3.6 (PNPC) U/mg"}
    ]}
  ]
}
